Read-outs that look alike come from different tables or passages of the source.
Experiments:
GAK [1] = biological target: T1, GAK (Homo sapiens, UniProt O14976); assay: biochemical
T1 sequence (O14976 12-347 limits assumed): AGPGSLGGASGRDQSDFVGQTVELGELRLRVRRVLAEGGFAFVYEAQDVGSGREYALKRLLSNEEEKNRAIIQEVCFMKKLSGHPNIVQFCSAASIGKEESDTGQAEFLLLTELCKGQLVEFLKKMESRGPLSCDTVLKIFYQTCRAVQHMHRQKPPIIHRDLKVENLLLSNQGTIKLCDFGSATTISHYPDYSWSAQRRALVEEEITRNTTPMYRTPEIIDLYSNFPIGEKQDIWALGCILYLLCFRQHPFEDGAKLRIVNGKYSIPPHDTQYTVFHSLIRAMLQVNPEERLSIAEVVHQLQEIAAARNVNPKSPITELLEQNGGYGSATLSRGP

SLK [2] = biological target: T2, SLK (Homo sapiens, UniProt Q9H2G2); assay: biochemical
STK10 [3] = biological target: T3, STK10 (Homo sapiens, UniProt O94804); assay: biochemical
[4] = biological target: T4, full length GAK protein N-terminally fused with NanoLuc luciferase (Homo sapiens, UniProt O14976); assay: cell-based; design: species or system HEK293T
T4 sequence (O14976 2-1311): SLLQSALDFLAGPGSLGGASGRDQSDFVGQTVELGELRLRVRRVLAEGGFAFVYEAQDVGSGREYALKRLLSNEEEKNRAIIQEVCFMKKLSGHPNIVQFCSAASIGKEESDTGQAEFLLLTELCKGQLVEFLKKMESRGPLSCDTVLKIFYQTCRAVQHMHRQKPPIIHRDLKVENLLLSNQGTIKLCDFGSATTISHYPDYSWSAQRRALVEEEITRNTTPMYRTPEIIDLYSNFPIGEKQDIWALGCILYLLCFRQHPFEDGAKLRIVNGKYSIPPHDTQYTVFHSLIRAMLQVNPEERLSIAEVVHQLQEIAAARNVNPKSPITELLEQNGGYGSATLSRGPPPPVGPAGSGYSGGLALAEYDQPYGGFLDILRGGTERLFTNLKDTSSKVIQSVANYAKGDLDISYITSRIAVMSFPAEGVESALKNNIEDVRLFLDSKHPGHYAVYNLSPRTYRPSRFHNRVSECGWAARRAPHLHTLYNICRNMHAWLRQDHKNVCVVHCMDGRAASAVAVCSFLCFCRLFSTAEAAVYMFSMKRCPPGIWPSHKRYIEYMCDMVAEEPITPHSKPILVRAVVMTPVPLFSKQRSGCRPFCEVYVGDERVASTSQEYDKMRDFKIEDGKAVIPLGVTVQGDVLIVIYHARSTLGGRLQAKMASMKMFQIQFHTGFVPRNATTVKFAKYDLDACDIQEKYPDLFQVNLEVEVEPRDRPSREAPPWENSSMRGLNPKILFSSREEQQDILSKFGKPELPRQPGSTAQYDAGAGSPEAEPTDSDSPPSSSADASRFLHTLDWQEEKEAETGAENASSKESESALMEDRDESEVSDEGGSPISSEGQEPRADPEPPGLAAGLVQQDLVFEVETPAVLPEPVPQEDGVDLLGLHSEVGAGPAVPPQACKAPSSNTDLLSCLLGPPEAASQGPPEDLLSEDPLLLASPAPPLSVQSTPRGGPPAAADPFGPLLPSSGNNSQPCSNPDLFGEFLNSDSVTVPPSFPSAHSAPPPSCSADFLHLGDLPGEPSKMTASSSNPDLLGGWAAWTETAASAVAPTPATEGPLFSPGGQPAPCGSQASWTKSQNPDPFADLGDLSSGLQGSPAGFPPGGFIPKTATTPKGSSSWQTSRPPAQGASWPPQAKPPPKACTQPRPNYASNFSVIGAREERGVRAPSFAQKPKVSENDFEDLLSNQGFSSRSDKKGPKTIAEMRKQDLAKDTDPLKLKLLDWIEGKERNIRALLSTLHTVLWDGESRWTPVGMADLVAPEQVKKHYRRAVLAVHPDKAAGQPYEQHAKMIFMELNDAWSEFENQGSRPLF

GAK [5] = biological target: T1, GAK; assay: biochemical; remark: listed apart in the source
SLK [6] = biological target: T2, SLK; assay: biochemical; remark: listed apart in the source
STK10 [7] = biological target: T3, STK10; assay: biochemical; remark: listed apart in the source
[8] = biological target: T4, full length GAK protein N-terminally fused with NanoLuc luciferase; assay: cell-based; design: species or system HEK293T; remark: listed apart in the source
GAK [9] = biological target: T1, GAK; assay: biochemical; remark: listed apart in the source
SLK [10] = biological target: T2, SLK; assay: biochemical; remark: listed apart in the source
STK10 [11] = biological target: T3, STK10; assay: biochemical; remark: listed apart in the source
[12] = biological target: T4, full length GAK protein N-terminally fused with NanoLuc luciferase; assay: cell-based; design: species or system HEK293T; remark: listed apart in the source
SLK [13] = biological target: T2, SLK; assay: TR-FRET binding displacement assay
STK10 [14] = biological target: T3, STK10; assay: TR-FRET binding displacement assay
SLK [15] = biological target: T2, SLK; assay: biochemical; remark: listed apart in the source
STK10 [16] = biological target: T3, STK10; assay: biochemical; remark: listed apart in the source
[17] = biological target: T4, full length GAK protein N-terminally fused with NanoLuc luciferase; assay: cell-based; design: species or system HEK293T; remark: listed apart in the source

T3 sequence (O94804 36-294 limits assumed): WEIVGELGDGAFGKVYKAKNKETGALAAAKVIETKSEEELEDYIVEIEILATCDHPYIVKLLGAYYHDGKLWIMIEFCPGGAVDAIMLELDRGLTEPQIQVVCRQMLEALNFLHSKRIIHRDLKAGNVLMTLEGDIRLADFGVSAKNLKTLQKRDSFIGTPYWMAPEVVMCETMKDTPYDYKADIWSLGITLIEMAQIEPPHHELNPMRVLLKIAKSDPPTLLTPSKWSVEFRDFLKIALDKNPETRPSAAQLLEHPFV
T2 sequence (Q9H2G2 34-292): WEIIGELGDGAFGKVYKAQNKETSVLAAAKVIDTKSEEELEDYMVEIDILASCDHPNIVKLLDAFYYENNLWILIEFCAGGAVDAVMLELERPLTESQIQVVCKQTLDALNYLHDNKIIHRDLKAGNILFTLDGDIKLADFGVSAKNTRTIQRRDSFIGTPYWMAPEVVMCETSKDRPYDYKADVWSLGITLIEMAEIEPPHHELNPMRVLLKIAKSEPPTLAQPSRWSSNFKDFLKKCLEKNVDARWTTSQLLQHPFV

Ki (GAK [1]) | Ki (SLK [2]) | IC50 [4] | Ki (GAK [9]) | Ki (SLK [10]) | Ki (STK10 [11]) | IC50 [12] | Structure (SMILES) | further results
210 nM | 1200 nM | > 5000 nM |  |  |  |  | COc1cc(Nc2c(C#N)cnc3ccc(S(C)(=O)=O)cc23)cc(OC)c1OC [compound 49, 49] | Ki (STK10 [3]): 1500 nM
 |  |  |  |  |  |  | C#Cc1cccc(Nc2c(C#N)cnc3ccc(Cl)cc23)c1 [compound 77, 77] | Ki (GAK [5]): 16 nM; Ki (SLK [6]): 710 nM; Ki (STK10 [7]): 720 nM; IC50 [8]: 3200 nM
 |  |  | 290 nM | 18000 nM | 6700 nM | > 5000 nM | C#Cc1cccc(Nc2ncnc3ccc(I)cc23)c1F [compound 96, 96] | 
 |  |  |  |  |  |  | C#Cc1cccc(Nc2c(C#N)cnc3ccc(F)cc23)c1 [compound 76, 76] | Ki (GAK [5]): 26 nM; Ki (SLK [6]): 540 nM; Ki (STK10 [7]): 580 nM; IC50 [8]: 3800 nM
 |  |  |  |  |  |  | C#Cc1cccc(Nc2c(C#N)cnc3ccc(S(C)(=O)=O)cc23)c1 [compound 80, 80] | Ki (GAK [5]): 180 nM; Ki (SLK [6]): > 55000 nM; Ki (STK10 [7]): 42000 nM; IC50 [8]: > 5000 nM
5.2 nM | 490 nM | 200 nM |  |  |  |  | COc1cc(Nc2c(C#N)cnc3cc(I)ccc23)cc(OC)c1OC [compound 52, 52] | Ki (STK10 [3]): 200 nM
2.3 nM | 9400 nM | 200 nM |  |  |  |  | COc1cc(Nc2c(C#N)cnc3ccc(Br)cc23)cc(OC)c1OC [compound 45, 45] | 
 |  |  | 93 nM | 860 nM | 270 nM | > 5000 nM | C#Cc1cccc(Nc2ncnc3cc(I)ccc23)c1F [compound 92, 92] | 
 |  |  |  |  |  |  | C#Cc1cccc(Nc2c(C#N)cnc3cc(I)ccc23)c1 [compound 86, 4-((3-ethynylphenyl)amino)-7-iodoquinoline-3-carbonitrile] | Ki (SLK [13]): 75 nM; Ki (STK10 [14]): 80 nM; Ki (GAK [5]): 19 nM; IC50 [8]: > 5000 nM
 |  |  | 320 nM | 6300 nM | 1600 nM | > 5000 nM | C#Cc1cc(Nc2ncnc3cc(C#N)ccc23)ccc1Cl [compound 90, 90] | 
 |  |  | 92 nM | 930 nM | 240 nM | > 5000 nM | C#Cc1cc(Nc2ncnc3cc(I)ccc23)ccc1Cl [compound 94, 94] | 
 |  |  | 3.4 nM | 330 nM | 75 nM | 390 nM | C#Cc1cc(Nc2ncnc3cc(OC)c(OC)cc23)ccc1Cl [compound 102, 102] | 
3.8 nM | 53000 nM | 240 nM |  |  |  |  | COc1cc(Nc2c(C#N)cnc3ccc(Cl)cc23)cc(OC)c1OC [compound 44, 44] | Ki (STK10 [3]): 26000 nM
 |  |  |  |  |  |  | C#Cc1cccc(Nc2c(C#N)cnc3cc(Br)ccc23)c1 [compound 85, 85] | Ki (GAK [5]): 27 nM; Ki (SLK [6]): 160 nM; Ki (STK10 [7]): 130 nM; IC50 [8]: > 5000 nM
 |  |  | 330 nM | 1100 nM | 500 nM | > 5000 nM | C#Cc1cccc(Nc2ncnc3cc(C#N)ccc23)c1F [compound 88, 88] | 
 |  |  | 68 nM | 1600 nM | 870 nM | > 5000 nM | C#Cc1cc(Nc2ncnc3ccc(I)cc23)ccc1F [compound 97, 97] | 

Ki (GAK [1]) | Ki (SLK [2]) | IC50 [4] | Ki (GAK [9]) | Ki (SLK [10]) | Ki (STK10 [11]) | IC50 [12] | Structure (SMILES) | further results
 |  |  | 140 nM | 7100 nM | 1000 nM | > 5000 nM | C#Cc1cc(Nc2ncnc3ccc(I)cc23)ccc1Cl [compound 98, 98] | 
 |  |  |  |  |  |  | COc1cc2ncc(C#N)c(Nc3cc(OC)c(OC)c(OC)c3)c2cc1OC [compound 48, 48] | Ki (GAK [1]; read-out: GAK Ki, binder): 0.85 nM; Ki (SLK [2]; read-out: SLK Ki, binder): 570 nM; Ki (STK10 [3]; read-out: STK10 Ki, binder): 420 nM; IC50 ([4]; read-out: NanoBRET GAK IC50, binder): 6 nM
2.4 nM | 3200 nM | 92 nM |  |  |  |  | COc1ccc2ncc(C#N)c(Nc3cc(OC)c(OC)c(OC)c3)c2c1 [compound 47, 47] | Ki (STK10 [3]): 1900 nM
2 nM | 2100 nM | 78 nM |  |  |  |  | COc1ccc2c(Nc3cc(OC)c(OC)c(OC)c3)c(C#N)cnc2c1 [compound 53, 53] | Ki (STK10 [3]): 1200 nM
6.6 nM | 1400 nM | 470 nM |  |  |  |  | COc1cc(Nc2c(C#N)cnc3cc(Cl)ccc23)cc(OC)c1OC [compound 50, 50] | Ki (STK10 [3]): 790 nM
8.8 nM | 7700 nM | 330 nM |  |  |  |  | COc1cc(Nc2c(C#N)cnc3ccccc23)cc(OC)c1OC [compound 43, 43] | Ki (STK10 [3]): 4700 nM
4.8 nM | 9700 nM | 260 nM |  |  |  |  | COc1cc(Nc2c(C#N)cnc3ccc(I)cc23)cc(OC)c1OC [compound 46, 46] | Ki (STK10 [3]): 4200 nM
 |  |  | 5.8 nM | 280 nM | 220 nM | 390 nM | C#Cc1ccc(F)c(Nc2ncnc3cc(OC)c(OC)cc23)c1 [compound 99, 99] | 
 |  |  |  |  |  |  | C#Cc1cccc(Nc2c(C#N)cnc3ccc(Br)cc23)c1 [compound 78, 78] | Ki (GAK [5]): 17 nM; Ki (SLK [6]): 1200 nM; Ki (STK10 [7]): 1100 nM; IC50 [8]: 4400 nM
 |  |  | 2.4 nM | 72 nM | 47 nM | 140 nM | C#Cc1cc(Nc2ncnc3cc(OC)c(OC)cc23)ccc1F [compound 101, 101] | 
2.9 nM | 710 nM | 140 nM |  |  |  |  | COc1cc(Nc2c(C#N)cnc3cc(Br)ccc23)cc(OC)c1OC [compound 51, 51] | Ki (STK10 [3]): 440 nM
 |  |  | 110 nM | 390 nM | 250 nM | > 5000 nM | C#Cc1ccc(F)c(Nc2ncnc3cc(I)ccc23)c1 [compound 91, 91] | 
 |  |  |  |  |  |  | Fc1ccc(Nc2ccnc3ccc(Br)cc23)cc1 [compound 108, 108] | Ki (SLK [15]): 36000 nM; Ki (STK10 [16]): 21000 nM; IC50 [17]: 940 nM
 |  |  | 550 nM | 690 nM | 870 nM | > 5000 nM | C#Cc1cc(Nc2ncnc3cc(C#N)ccc23)ccc1F [compound 89, 89] | 
 |  |  | 190 nM | 4500 nM | 4900 nM | > 5000 nM | C#Cc1ccc(F)c(Nc2ncnc3ccc(I)cc23)c1 [compound 95, 95] | 

Source: publication doi:10.1101/757047v1 (biorxiv, 2019)
